Data taken from ChEMBL document CHEMBL1154509, “Synthesis and in vitro biological activity of retinyl polyhydroxybenzoates, novel hybrid retinoid derivatives” (Bioorg Med Chem Lett, 2009).

Legend:
[1] = molecular target: T1, Tyrosinase (Homo sapiens) (UniProt P14679); experiment: Inhibition of tyrosinase at 5 uM
T1 sequence (whole entry): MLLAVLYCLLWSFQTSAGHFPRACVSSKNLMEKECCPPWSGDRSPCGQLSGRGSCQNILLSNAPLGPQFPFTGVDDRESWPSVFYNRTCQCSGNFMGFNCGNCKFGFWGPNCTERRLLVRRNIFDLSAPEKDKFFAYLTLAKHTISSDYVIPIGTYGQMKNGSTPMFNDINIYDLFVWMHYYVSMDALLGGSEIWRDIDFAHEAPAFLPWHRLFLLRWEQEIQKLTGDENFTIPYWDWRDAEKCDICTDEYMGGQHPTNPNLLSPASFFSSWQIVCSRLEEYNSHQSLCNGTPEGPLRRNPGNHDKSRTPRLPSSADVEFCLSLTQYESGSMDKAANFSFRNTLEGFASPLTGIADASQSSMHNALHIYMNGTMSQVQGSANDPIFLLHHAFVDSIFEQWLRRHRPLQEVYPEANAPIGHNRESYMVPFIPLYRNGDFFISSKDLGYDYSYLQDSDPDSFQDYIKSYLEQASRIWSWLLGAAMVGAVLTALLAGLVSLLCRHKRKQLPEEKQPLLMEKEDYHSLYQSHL

[2] = tested on: Fibroblast; experiment: Inhibition of melanogenesis in […] at 5 uM; assay type: functional
[3] = Antioxidant activity assessed as free radical scavenging activity at 5 uM; assay type: functional
[4] = Antioxidant activity assessed as free radical scavenging activity at 10 uM; assay type: functional
[5] = Toxicity against human dermal fibroblasts; assay type: cell-based, Fibroblast
[6] = Anti-aging activity in human dermal fibroblasts assessed as expression rate of procollagen type 1 formation at 200 uM relative to control; assay type: functional, Fibroblast
[7] = Toxicity against human dermal fibroblasts assessed as cell viability at 200 uM relative to control; assay type: cell-based, Fibroblast; conditions: read-out: Activity
[8] = Anti-aging activity in human dermal fibroblasts assessed as inhibition rate of MMP1 expression at 10 uM relative to control; assay type: functional; conditions: Fibroblast
[9] = Toxicity against mouse B16/F10 cells assessed as cell viability at 5 uM relative to control; assay type: cell-based; conditions: read-out: Activity
[10] = molecular target: T2, Tyrosinase (Mus musculus) (UniProt P11344); experiment: Inhibition of tyrosinase activity in mouse B16/F10 cells at 5 uM relative to control; assay type: cell-based
T2 sequence (whole entry): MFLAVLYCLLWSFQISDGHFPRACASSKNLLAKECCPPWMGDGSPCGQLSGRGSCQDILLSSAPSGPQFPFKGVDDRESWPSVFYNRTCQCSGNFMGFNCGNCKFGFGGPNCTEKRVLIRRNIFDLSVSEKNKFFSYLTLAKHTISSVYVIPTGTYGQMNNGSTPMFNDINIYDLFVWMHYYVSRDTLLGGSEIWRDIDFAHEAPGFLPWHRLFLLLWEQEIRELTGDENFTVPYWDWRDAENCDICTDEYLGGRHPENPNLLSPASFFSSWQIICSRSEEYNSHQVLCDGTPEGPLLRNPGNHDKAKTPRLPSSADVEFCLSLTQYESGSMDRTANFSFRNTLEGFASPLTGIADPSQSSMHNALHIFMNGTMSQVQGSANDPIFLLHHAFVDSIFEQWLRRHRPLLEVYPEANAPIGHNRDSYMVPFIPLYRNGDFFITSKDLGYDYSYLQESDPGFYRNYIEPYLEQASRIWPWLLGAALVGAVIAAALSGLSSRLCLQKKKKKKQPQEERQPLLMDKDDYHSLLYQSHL

[11] = tested on: B16-F10; experiment: Inhibition of rate of melanin formation in mouse B16/F10 cells at 5 uM relative to control; assay type: functional
[12] = Anti-aging activity in human dermal fibroblasts assessed as rate of procollagen formation at 0.0005 weight % concentration relative to retinol; assay type: functional, Fibroblast
[13] = tested on: Fibroblast; experiment: Skin whitening activity in […] assessed as inhibition of melanin formation at 0.001 weight % concentration relative to resveratrol; assay type: functional
[14] = Toxicity against human dermal fibroblasts assessed as cell viability at 10 uM relative to control; assay type: cell-based, Fibroblast; conditions: read-out: Activity
[15] = Anti-aging activity in human dermal fibroblasts assessed as expression rate of procollagen type 1 formation at 10 uM relative to control; assay type: functional, Fibroblast
[16] = Anti-aging activity in human dermal fibroblasts assessed as inhibition rate of MMP1 expression at 1 uM relative to control; assay type: functional; conditions: Fibroblast
[17] = Toxicity against human dermal fibroblasts assessed as cell viability at 1 uM relative to control; assay type: cell-based, Fibroblast; conditions: read-out: Activity
[18] = Anti-aging activity in human dermal fibroblasts assessed as expression rate of procollagen type 1 formation at 1 uM relative to control; assay type: functional, Fibroblast
[19] = Anti-aging activity in human dermal fibroblasts assessed as rate of procollagen formation at 0.002 weight % concentration relative to retinol; assay type: functional, Fibroblast
[20] = tested on: Fibroblast; experiment: Skin whitening activity in […] assessed as inhibition of melanin formation at 0.002 weight % concentration relative to resveratrol; assay type: functional
[21] = Anti-aging activity in human dermal fibroblasts assessed as rate of procollagen formation at 0.001 weight % concentration relative to retinol; assay type: functional, Fibroblast
[22] = Anti-aging activity in human dermal fibroblasts assessed as expression rate of procollagen type 1 formation at 5 uM relative to control; assay type: functional, Fibroblast
[23] = Anti-aging activity in human dermal fibroblasts assessed as inhibition rate of MMP1 expression at 5 uM relative to control; assay type: functional; conditions: Fibroblast
[24] = Thermal stability at 40 degC assessed as compound degradation after 4 weeks by HPLC; assay type: physicochemical
[25] = tested on: Fibroblast; experiment: Increase of collagen synthesis in human dermal fibroblasts at 5 uM; assay type: functional
[26] = Inhibition of elastase at 5 uM
[27] = Inhibition of elastase at 10 uM
[28] = Anti-aging activity in human dermal fibroblasts assessed as rate of procollagen formation at 0.0002 weight % concentration relative to retinol; assay type: functional, Fibroblast
[29] = tested on: Fibroblast; experiment: Skin whitening activity in […] assessed as inhibition of melanin formation at 0.0002 weight % concentration relative to resveratrol; assay type: functional
[30] = Toxicity against human dermal fibroblasts assessed as cell viability at 5 uM relative to control; assay type: cell-based, Fibroblast; conditions: read-out: Activity
[31] = Anti-aging activity in human dermal fibroblasts assessed as rate of procollagen formation at 0.005 weight % concentration relative to retinol; assay type: functional, Fibroblast
[32] = Anti-aging activity in human dermal fibroblasts assessed as rate of procollagen formation at 0.0001 weight % concentration relative to retinol; assay type: functional, Fibroblast
[33] = molecular target: T2, Tyrosinase (Mus musculus); experiment: Inhibition of tyrosinase activity in mouse B16/F10 cells at 10 ppm relative to control; assay type: cell-based
[34] = tested on: B16-F10; experiment: Inhibition of rate of melanin formation in mouse B16/F10 cells at 10 ppm relative to control; assay type: functional
[35] = Toxicity against mouse B16/F10 cells assessed as cell viability at 10 ppm relative to control; assay type: cell-based; conditions: read-out: Activity

OC[C@H]1O[C@@H](Oc2ccc(O)cc2)[C@H](O)[C@@H](O)[C@@H]1O [ARBUTIN]
inhibition [1]: -1.5%
inhibition at 5 µM [2]: 5.5%

Oc1ccc(/C=C/c2cc(O)cc(O)c2)cc1 [RESVERATROL]
Activity [3]: 5.6%
Activity [4]: 16.7%
inhibition [1]: 36.2%
inhibition at 5 µM [2]: 25.5%
IC50 [5]: 900 µM

O=C1O[C@H]([C@@H](O)CO)C(O)=C1O [ASCORBIC ACID]
Activity [6]: 127.5%
viability at 200 µM [7]: 95.4%
Activity [3]: 19.1%
Activity [4]: 38.6%

COc1cccc(C(=O)OC/C=C(C)/C=C/C=C(C)/C=C/C2=CCCCC2(C)C)c1O
inhibition at 10 µM [8]: 16.9%
viability at 5 µM [9]: 107%
inhibition [10]: 38.1%
inhibition at 5 µM [11]: 16.2%
Activity [12]: 116%
inhibition (INH) [13]: 22%
IC50 [5]: 27 µM
viability at 10 µM [14]: 126%
Activity [15]: 70%

CC(/C=C/C1=CCCCC1(C)C)=C\C=C\C(C)=C\COC(=O)c1c(O)cccc1O
inhibition at 1 µM [16]: -63%
viability at 5 µM [9]: 102%
inhibition [10]: 45.4%
inhibition at 5 µM [11]: 12.7%
Activity [12]: 102%
inhibition (INH) [13]: 112%
IC50 [5]: 14 µM
viability at 1 µM [17]: 88.1%
Activity [18]: 85.5%

CC(/C=C/C1=CCCCC1(C)C)=C\C=C\C(C)=C\COC(=O)c1cc(O)ccc1O
inhibition at 10 µM [8]: -32.2%
viability at 5 µM [9]: 99.7%
inhibition [10]: 31.3%
inhibition at 5 µM [11]: 25.8%
Activity [12]: 55%
inhibition (INH) [13]: 95%
IC50 [5]: 14 µM
viability at 10 µM [14]: 91.8%
Activity [15]: 78.7%

CC(=O)Oc1ccccc1C(=O)OC/C=C(C)/C=C/C=C(C)/C=C/C1=CCCCC1(C)C
Activity [19]: 61%
inhibition (INH) [20]: 32%
IC50 [5]: 150 µM

COc1cc(NC(C)=O)cc(C(=O)OC/C=C(C)/C=C/C=C(C)/C=C/C2=CCCCC2(C)C)c1O
Activity [21]: 15%
IC50 [5]: < 10 µM

O=C(O[C@@H]1Cc2c(O)cc(O)cc2O[C@@H]1c1cc(O)c(O)c(O)c1)c1cc(O)c(O)c(O)c1 [EPIGALOCATECHIN GALLATE]
inhibition at 10 µM [8]: 46.7%
viability at 10 µM [14]: 95.2%

CC(/C=C/C1=CCCCC1(C)C)=C\C=C\C(C)=C\COC(=O)c1cc(O)c(O)c(O)c1
Activity [22]: 115.9%
inhibition at 5 µM [23]: -19.3%
viability at 5 µM [9]: 83.9%
inhibition [10]: 49.6%
inhibition at 5 µM [11]: 27.5%
Activity [3]: 31.1%
Activity [4]: 62.8%
Stability ([24]; 672 h): Stable
Activity [25]: 13.5%
inhibition [26]: 12.3%
inhibition [27]: 15.3%
inhibition [1]: 2.5%
inhibition at 5 µM [2]: 18.6%
Activity [28]: 91%
inhibition (INH) [29]: 73%
IC50 [5]: 35 µM
viability at 5 µM [30]: 84.2%

COc1cccc(O)c1C(=O)OC/C=C(C)/C=C/C=C(C)/C=C/C1=CCCCC1(C)C
Activity [31]: 54%
inhibition (INH) [13]: 28%
IC50 [5]: 230 µM

CC(/C=C/C1=CCCCC1(C)C)=C\C=C\C(C)=C\COC(=O)c1ccccc1O
Activity [19]: 46%
inhibition (INH) [20]: 34%
IC50 [5]: 150 µM

COc1cc(O)c(C(=O)OC/C=C(C)/C=C/C=C(C)/C=C/C2=CCCCC2(C)C)c(O)c1
inhibition at 10 µM [8]: -17.4%
viability at 5 µM [9]: 102%
inhibition [10]: 41.9%
inhibition at 5 µM [11]: 9.5%
Activity [12]: 55%
inhibition (INH) [13]: 95%
IC50 [5]: 14 µM
viability at 10 µM [14]: 92.6%
Activity [15]: 89.2%

CC(/C=C/C1=CCCCC1(C)C)=C\C=C\C(C)=C\COC(=O)c1cccc(O)c1O
viability at 5 µM [9]: 97%
inhibition [10]: 36.7%
inhibition at 5 µM [11]: 18.6%
Activity [32]: 66%
inhibition (INH) [13]: 105%
IC50 [5]: < 10 µM
viability at 1 µM [17]: 71.8%

COc1cc(/C=C/C(=O)Oc2cc(C)ccc2C(C)C)cc(OC)c1OC
inhibition [33]: 46.9%
inhibition at 10 ppm [34]: 39.3%
viability at 10 ppm [35]: 95.4%

CC(/C=C/C1=CCCCC1(C)C)=C\C=C\C(C)=C\COC(=O)c1ccc(O)cc1O
Activity [21]: 26%
inhibition (INH) [13]: 41%
IC50 [5]: 120 µM

CC1=C(/C=C/C(C)=C/C=C/C(C)=C/C(=O)O)C(C)(C)CCC1 [TRETINOIN]
inhibition at 10 µM [8]: 59.2%
viability at 10 µM [14]: 105%

COc1ccc(O)c(C(=O)OC/C=C(C)/C=C/C=C(C)/C=C/C2=CCCCC2(C)C)c1
Activity [21]: 81%
inhibition (INH) [13]: 30%
IC50 [5]: 570 µM

CC1=C(/C=C/C(C)=C/C=C/C(C)=C/CO)C(C)(C)CCC1 [RETINOL]
degraded at 672 h ([24]; read-out: Activity): 70%
Activity [25]: 33.4%
IC50 [5]: 50 µM

C[C@H]1[C@H](C)CC[C@]2(C(=O)O)CC[C@]3(C)C(=CC[C@@H]4[C@@]5(C)CC[C@H](O)C(C)(C)[C@@H]5CC[C@]43C)[C@H]12 [URSOLIC ACID]
inhibition [26]: 10.3%
inhibition [27]: 14.1%
IC50 [5]: 3.5 µM

CC(/C=C/C1=CCCCC1(C)C)=C\C=C\C(C)=C\COC(=O)c1cc(O)c2ccccc2c1O
Activity [12]: 37%
inhibition (INH) [13]: 18%
IC50 [5]: 420 µM
